Reference: patent US20240239767A1 (AstraZeneca AB, priority 2022, published 2024)

Key:
[1] = target: T1, PCSK9 (Homo sapiens, UniProt Q8NBP7, G670E/V474I); experiment: biochemical
Target sequence in this assay (Q8NBP7 with tags, fused parts or gaps V474I/G670E): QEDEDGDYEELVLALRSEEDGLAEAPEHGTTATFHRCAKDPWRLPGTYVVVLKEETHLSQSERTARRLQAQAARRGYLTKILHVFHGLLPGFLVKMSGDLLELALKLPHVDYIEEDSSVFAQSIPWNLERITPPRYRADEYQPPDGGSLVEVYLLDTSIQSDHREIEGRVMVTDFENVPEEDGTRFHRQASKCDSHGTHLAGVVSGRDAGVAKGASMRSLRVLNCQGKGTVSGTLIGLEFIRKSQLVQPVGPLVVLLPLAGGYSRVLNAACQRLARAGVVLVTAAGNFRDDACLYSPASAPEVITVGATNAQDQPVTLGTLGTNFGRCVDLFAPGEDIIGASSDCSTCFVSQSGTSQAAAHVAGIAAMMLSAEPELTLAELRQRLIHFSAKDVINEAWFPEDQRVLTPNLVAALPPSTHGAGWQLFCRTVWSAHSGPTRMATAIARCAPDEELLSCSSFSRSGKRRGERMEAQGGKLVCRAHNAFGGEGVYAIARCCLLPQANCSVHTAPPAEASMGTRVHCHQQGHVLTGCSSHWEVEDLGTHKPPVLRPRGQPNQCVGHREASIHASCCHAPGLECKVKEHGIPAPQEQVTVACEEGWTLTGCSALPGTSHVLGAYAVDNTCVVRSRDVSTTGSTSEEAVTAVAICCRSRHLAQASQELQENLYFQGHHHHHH

[2] = target: GSK3b (Glycogen synthase kinase-3 beta) (Homo sapiens, UniProt P49841); experiment: Assay 6 - GSK3b assay (ThermoFisher, FRET Z-Lyte); type: biochemical; settings: geometric mean; ATP Conc: 10.000 μM; read-out: Assay 6 (GSK3B FRET-Z-Lyte CR) GMean IC50 (μM) ATP Conc: 10.000
Method: This assay measures the activity of the compounds at GSK3b (Glycogen synthase kinase-3 beta).
The test compounds were screened in 1% DMSO (final) in the well. For 10-point titrations, 3-fold serial dilutions are conducted from the starting concentration of 10 μM.
• Bar-coded Corning, low volume NBS, black 384-well plate • 1. 2.5 μL—4× Test Compound or 100 nL 100× plus 2.4 μL kinase buffer • 2. 5 μL—2× Peptide/Kinase Mixture • 3. 2.5 μL—4× ATP Solution • 4. 30-second plate shake • 5. 60-minute Kinase Reaction incubation at room temperature • 6. 5 μL—Development Reagent Solution • 7. 30-second plate shake • 8. 60-minute Development Reaction incubation at room temperature • 9. Read on fluorescence plate reader and analyse the data
In step 2, the 2× GSK3β (GSK3 beta)/Ser/Thr (Glycogen synthase kinase-3 beta/Serine/Threonine) 09 mixture is prepared in 50 mM HEPES (4-(2-hydroxyethyl)-1-piperazineethanesulfonic acid) pH 7.5, 0.01% BRIJ-35, 10 mM MgCl2, 1 mM EGTA (egtazic acid). The final 10 μL Kinase Reaction consists of 0.22-0.92 ng GSK3β (GSK3 beta) and 2 μM Ser/Thr 09 in 50 mM HEPES pH 7.5, 0.01% BRIJ-35, 10 mM MgCl2, 1 mM EGTA.
In step 3 the ATP Solution is diluted to a 4× working concentration in Kinase Buffer (50 mM HEPES pH 7.5, 0.01% BRIJ-35, 10 mM MgCl2, 1 mM EGTA).
In Step 6 the Development Reagent is diluted 1:512 in Development Buffer (10× Novel PKC Lipid Mix: 2 mg/mL Phosphatidyl Serine, 0.2 mg/mL DAG in 20 mM HEPES, pH 7.4, 0.3% CHAPS).
SelectScreen® Kinase Profiling Service uses XLfit from IDBS. The dose response curve is curve fit to model number 205 (sigmoidal dose-response model).

[3] = target: T2, potassium ion channel hERG (human Ether-á-go-go-Related Gene) (Homo sapiens, UniProt Q12809); experiment: Assay 5 - hERG assay (SyncroPatch 384PE patch clamp, CHO cells); type: cell-based; settings: geometric mean, CHO cells over-expressing hERG, read-out: Assay 5 (hERG Hu CHO IF EPh CR-Syncro) GMean IC50
T2 construct: expressed in transfected cells; host or cells: Chinese hamster ovary K1 (CHO)
Method: Assay 5—hERG Assay (Human Ether-á-go-go-Related Gene)
This assay (human Ether-á-go-go-Related Gene) measures activity of the compounds at the potassium ion channel hERG (human Ether-á-go-go-Related Gene).
Experiments were performed on the SyncroPatch 384PE high throughput patch clamp platform at room temperature and medium resistance chips with 4 patch holes per site. Chinese hamster ovary K1 (CHO) cell lines over-expressing the ion channel of choice (hERG) were used in assay-ready format and kept in liquid nitrogen or were used from live culture. Cells were either thawed and diluted in HBSS or were detached from flasks and resuspended in HBSS. HBSS comprised 140 mM NaCl, 4 mM KCl, 10 mM HEPES and 5 mM Glucose (pH 7.4). The internal patch clamp solution was KF 120 mM, KCl 20 mM, HEPES 10 mM, EGTA 10 mM, and 25 μM Escin (pH 7.2). After the sealing process was complete, the external solution was exchanged for external patch clamp solution comprising NaCl 80 mM, KCl 4 mM, HEPES 10 mM, CaCl2 2 mM, MgCl2 1 mM, glucose 5 mM, and NMDG 60 mM (pH 7.4). All solutions were stored at room temperature, except Escin, which was stored at 4° C. All test compounds were dispensed in greiner-bio 384 well plates and tested in a 6 point cumulative assay (final DMSO concentration 0.33%). Only wells that passed previously agreed acceptance criteria for this platform were used in this analysis (30 MegaOhm seal resistance, Z prime>0.4 and current size>0.2 nA).

[4] = target: T1, PCSK9; experiment: cell-based
Target sequence in this assay (Q8NBP7 31-152): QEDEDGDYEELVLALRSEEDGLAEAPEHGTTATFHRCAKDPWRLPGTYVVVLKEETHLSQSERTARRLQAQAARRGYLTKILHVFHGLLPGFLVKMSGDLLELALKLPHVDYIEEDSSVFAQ
Target sequence in this assay (Q8NBP7 153-692 V474I/G670E): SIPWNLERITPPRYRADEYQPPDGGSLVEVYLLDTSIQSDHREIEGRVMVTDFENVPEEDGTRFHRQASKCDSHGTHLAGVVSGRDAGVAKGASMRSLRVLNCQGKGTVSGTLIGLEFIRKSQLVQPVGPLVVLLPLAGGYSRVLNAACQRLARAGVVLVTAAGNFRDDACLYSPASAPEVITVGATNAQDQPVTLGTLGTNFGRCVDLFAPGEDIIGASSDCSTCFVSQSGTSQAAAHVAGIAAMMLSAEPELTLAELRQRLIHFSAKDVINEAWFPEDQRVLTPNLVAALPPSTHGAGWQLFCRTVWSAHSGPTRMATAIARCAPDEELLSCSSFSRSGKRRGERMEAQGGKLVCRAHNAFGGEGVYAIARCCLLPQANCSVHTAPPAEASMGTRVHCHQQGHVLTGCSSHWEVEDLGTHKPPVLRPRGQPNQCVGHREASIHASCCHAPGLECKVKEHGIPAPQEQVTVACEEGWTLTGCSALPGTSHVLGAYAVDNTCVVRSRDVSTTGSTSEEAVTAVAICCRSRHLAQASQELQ
Source text: This assay measures for PCSK9 antagonist activity based on a test compound's capacity to restore LDL-C uptake in HepG2 cells. The assay is based on exogenous PCSK9 and LDL-C complexed with a pH-sensitive dye. Outside the cells, at neutral pH, the pHrodo Red-LDL is dimly fluorescent but upon LDLR mediated endocytosis it fluoresces brightly. PCSK9 traffics the LDLR to intracellular degradation and reduces uptake of LDL-C. Inhibition of PCSK9 reduces LDLR degradation and the increased LDL-C uptake is quantified by fluorescence microscopy.
Cell medium: MEM supplemented with 10% FBS, 1× NEAA and Sodium Pyruvate
Assay medium: OptiMem supplemented with penicillin/streptomycin
Cells: HepG2 (ATCC #HB-8065)
Cryopreserved HepG2 cells were thawed in assay medium and centrifuged for 5 min at 250 g. Supernatant was discarded and the cell pellet resuspended in cell medium and counted with a Nucleocounter. Cells were again centrifuged 5 min at 250 g and the pellet was resuspended to 500000 cells/mL in assay medium. • 2. 20 μL of above cell mix was dispensed into black pclear TC treated 384 well plates with Multidrop Combi and left at room temperature for 20 minutes. • 3. Plates were incubated at 37° C., 5% CO2 for 24 h
Test compounds were prepared in concentration response in DMSO with a half-log dilution factor in DMSO in Echo 384 LDV plates starting at 10 mM. • 2. 30 nL of above test compounds were dispensed with Echo 655 to cells for a top concentration of 10 μM • 3. […] Plates were incubated at 37° C., 5% CO2 for 24 h
10 μL pHrodo Red-LDL in assay medium was dispensed to cells with Multidrop Combi for 6 μg/mL • 2. Plates were incubated at 37° C., 5% CO2 and imaged with the Incucyte S3 after 4 h and 24 h
Image data was processed using Incucyte 2021, a software to identify cells and red fluorescent intensity. Screener was used to further process data. Data was normalized as % effect of the signal between median values of the on-plate controls of DMSO and 100 nM Evolocumab according to the formula % effect=−100*(x−DMSO)/(Evolocumab−DMSO) where x equals the measured signal. Concentration response data of the normalized values were fitted using a four-parameter logistic fit.

T2 sequence (Q12809 whole entry): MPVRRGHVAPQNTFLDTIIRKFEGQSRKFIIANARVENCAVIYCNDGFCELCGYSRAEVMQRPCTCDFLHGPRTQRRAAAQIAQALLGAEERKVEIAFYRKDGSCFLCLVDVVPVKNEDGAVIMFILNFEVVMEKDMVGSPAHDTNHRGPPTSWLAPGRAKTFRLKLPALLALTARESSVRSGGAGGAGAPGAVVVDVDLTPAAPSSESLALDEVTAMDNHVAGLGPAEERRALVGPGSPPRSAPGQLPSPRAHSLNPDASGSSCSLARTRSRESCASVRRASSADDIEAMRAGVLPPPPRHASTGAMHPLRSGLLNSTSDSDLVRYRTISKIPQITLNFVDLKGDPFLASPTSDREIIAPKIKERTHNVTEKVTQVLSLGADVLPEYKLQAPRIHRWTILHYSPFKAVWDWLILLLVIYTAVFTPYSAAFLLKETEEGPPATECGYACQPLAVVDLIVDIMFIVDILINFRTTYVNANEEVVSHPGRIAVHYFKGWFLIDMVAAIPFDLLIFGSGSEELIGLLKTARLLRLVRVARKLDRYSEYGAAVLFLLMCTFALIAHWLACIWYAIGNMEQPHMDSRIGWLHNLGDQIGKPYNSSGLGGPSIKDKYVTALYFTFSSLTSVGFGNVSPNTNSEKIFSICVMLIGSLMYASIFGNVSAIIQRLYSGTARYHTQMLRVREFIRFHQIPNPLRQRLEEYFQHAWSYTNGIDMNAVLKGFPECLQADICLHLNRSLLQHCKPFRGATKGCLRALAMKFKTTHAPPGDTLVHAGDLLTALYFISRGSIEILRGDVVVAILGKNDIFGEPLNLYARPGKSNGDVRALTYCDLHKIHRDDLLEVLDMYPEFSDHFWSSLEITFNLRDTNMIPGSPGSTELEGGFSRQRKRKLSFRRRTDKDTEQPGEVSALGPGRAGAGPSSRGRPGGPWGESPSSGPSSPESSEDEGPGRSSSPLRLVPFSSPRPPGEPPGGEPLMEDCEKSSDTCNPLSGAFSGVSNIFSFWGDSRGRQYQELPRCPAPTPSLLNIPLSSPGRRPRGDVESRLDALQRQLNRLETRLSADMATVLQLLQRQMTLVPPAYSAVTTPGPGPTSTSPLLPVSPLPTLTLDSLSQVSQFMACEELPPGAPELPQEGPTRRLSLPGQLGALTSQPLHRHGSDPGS
GSK3b (Glycogen synthase kinase-3 beta), sequence (P49841 whole entry): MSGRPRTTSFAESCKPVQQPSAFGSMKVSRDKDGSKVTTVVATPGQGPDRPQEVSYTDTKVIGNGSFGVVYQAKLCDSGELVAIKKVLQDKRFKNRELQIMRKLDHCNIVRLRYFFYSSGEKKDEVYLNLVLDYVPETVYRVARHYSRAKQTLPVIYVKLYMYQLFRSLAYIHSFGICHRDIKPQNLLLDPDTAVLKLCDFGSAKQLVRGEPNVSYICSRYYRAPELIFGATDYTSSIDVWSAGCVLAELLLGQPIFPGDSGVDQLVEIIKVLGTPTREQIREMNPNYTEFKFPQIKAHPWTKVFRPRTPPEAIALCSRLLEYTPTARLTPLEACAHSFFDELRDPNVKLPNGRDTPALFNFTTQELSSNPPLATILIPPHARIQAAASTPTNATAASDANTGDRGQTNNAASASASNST

Structure (SMILES)	IC50 [1] [nM]	IC50 [2] [µM]	IC50 [3] [nM]	IC50 [4] [nM]
O=c1c(Cl)cccn1-c1ccc(N[C@H]2CC[C@H](Nc3nc4cccnc4o3)C2)nc1 [Example 16, 3-Chloro-6′-(((1S,3S)-3-(oxazolo[5,4-b]pyridin-2-ylamino)cyclopentyl)amino)-2H-[1,3′-bipyridin]-2-one]	1.6	> 10	28400	81
Cc1cccn(-c2ccc(N[C@H]3CC[C@H](Nc4nc5cccnc5s4)C3)nc2)c1=O [Example 22, 3-Methyl-6′-(((1S,3S)-3-(thiazolo[5,4-b]pyridin-2-ylamino)cyclopentyl)amino)-2H-[1,3′-bipyridin]-2-one]	1.2	> 10	25700	54
N#Cc1cccn(-c2ccc(N[C@H]3CC[C@H](Nc4nc5cccnc5s4)C3)nc2)c1=O [Example 23, 2-Oxo-6′-(((1S,3S)-3-(thiazolo[5,4-b]pyridin-2-ylamino)cyclopentyl)amino)-2H-[1,3′-bipyridine]-3-carbonitrile]	1.2	> 10	24600	92
N#Cc1ccc(=O)n(-c2ccc(N[C@H]3CC[C@H](Nc4nc5cccnc5s4)C3)nc2)c1 [Example 26, 2-Oxo-6′-(((1S,3S)-3-(thiazolo[5,4-b]pyridin-2-ylamino)cyclopentyl)amino)-2H-[1,3′-bipyridine]-5-carbonitrile]	6.8	> 10	19700	168
O=c1cccnn1-c1ccc(N[C@H]2CC[C@H](Nc3nc4cccnc4[nH]3)C2)nc1 [Example 28, 2-(6-(((1S,3S)-3-((3H-Imidazo[4,5-b]pyridin-2-yl)amino)cyclopentyl)amino)pyridin-3-yl)pyridazin-3(2H)-one]	5.7	> 10	> 40000	173
O=c1ccncn1-c1ccc(N[C@H]2CC[C@H](Nc3nc4cccnc4[nH]3)C2)nc1 [Example 29, 3-(6-(((1S,3S)-3-((3H-Imidazo[4,5-b]pyridin-2-yl)amino)cyclopentyl)amino)pyridin-3-yl)pyrimidin-4(3H)-one]	5.7	> 10	> 40000	68
O=c1[nH]c2ccccc2n1-c1ccc(N[C@H]2CC[C@H](Nc3nc4cccnc4[nH]3)C2)nc1 [Example 35, 1-(6-(((1S,3S)-3-((3H-Imidazo[4,5-b]pyridin-2-yl)amino)cyclopentyl)amino)pyridin-3-yl)-1,3-dihydro-2H-benzo[d]imidazol-2-one]	0.7	7.61	27400	108
Cn1c(=O)n(-c2ccc(N[C@H]3CC[C@H](Nc4nc5cccnc5[nH]4)C3)nc2)c2ccccc21 [Example 36, 1-(6-(((1S,3S)-3-((3H-Imidazo[4,5-b]pyridin-2-yl)amino)cyclopentyl)amino)pyridin-3-yl)-3-methyl-1,3-dihydro-2H-benzo[d]imidazol-2-one]	0.6	> 10	25800	60
CN1CC(=O)N(c2ccc(N[C@H]3CC[C@H](Nc4nc5cccnc5[nH]4)C3)nc2)C1=O [Example 38, 3-(6-(((1S,3S)-3-((3H-Imidazo[4,5-b]pyridin-2-yl)amino)cyclopentyl)amino)pyridin-3-yl)-1-methylimidazolidine-2,4-dione]	5.7	> 10	> 40000	158
Cn1cccc(-c2cnc(N[C@H]3CC[C@H](Nc4nc5cccnc5[nH]4)C3)nc2)c1=O [Example 39, 3-(2-(((1S,3S)-3-((3H-Imidazo[4,5-b]pyridin-2-yl)amino)cyclopentyl)amino)pyrimidin-5-yl)-1-methylpyridin-2(1H)-one]	6.1	> 10	> 40000	93
